This is an account of results in the CATMoS acute toxicity set (Mansouri et al. 2021).

The data set in a line: GHS categories as the set defines them, by LD50: 1 up to 5, 2 up to 50, 3 up to 300, 4 up to 2000, 5 above 2000 mg/kg. The note with it: rat; in vivo; po.

As for `CC(=O)O[C@@H]1C(=O)O[C@@H]2[C@H]1OC(=O)[C@@H]2OC(C)=O`, the GHS category is on record as 5. The result for `C=CC/C=C/C/C=C/C/C=C/C` reads 5; that for `O=C(NC(=O)c1c(F)cccc1F)Nc1cc(Cl)c(OC(F)(F)C(F)F)c(Cl)c1`, 5; that for `Cn1nnnc1SCC1=C(C(=O)O)N2C(=O)[C@@H](NC(=O)[C@H](O)c3ccccc3)[C@H]2SC1`, 5. The result for `Nc1cc(Cl)c(Cl)cc1S(=O)(=O)O` reads 5. `C[C@]12C=CC(=O)C=C1CC[C@@H]1[C@@H]2CC[C@@]2(C)[C@H]1CC[C@]2(C)O` displayed a GHS category of 4. The compound `CC1(C)Oc2cc(C(=O)c3ccc(Cl)cc3)ccc2NC1=O` showed a GHS category of 5. The result for `O=Cc1cc([N+](=O)[O-])ccc1Cl` reads 5; that for `CC(C)(C)CNc1nnc(-c2ccccc2)c2ccccc12`, 5; that for `CC(C)(C)C1CCC(CC2=C(O)C(=O)c3ccccc3C2=O)CC1` (stereo unspecified), 5. The result for `CC[C@H]1C[C@H]2[C@@H]3CCC4=CC(=O)CC[C@@H]4[C@H]3CC[C@]2(C)[C@H]1OC(C)=O` reads 5.

Take `Cn1nnnc1SCCCC(=O)c1cccs1`: the GHS category was found to be 4.

`CCN(CCOC(C)OCC(C)C)c1ccc(N=Nc2ccccc2)cc1` (stereo unspecified) had a GHS category of 4. `COc1nc(Nc2ccc(C=Cc3ccc(Nc4nc(OC)nc(N(CCO)CCO)n4)cc3S(=O)(=O)O)c(S(=O)(=O)O)c2)nc(N(CCO)CCO)n1`: the GHS category was 5.

In turn, `COCc1c(Cc2ccc(-c3ccccc3-c3nn[nH]n3)cc2)c(=O)nc2nc[nH]n12` returned a GHS category of 4. Regarding `CCCCCCCC(O)CCO` (stereo unspecified), the GHS category is 5.

Compound `c1ccc(-c2nc3ccccc3o2)cc1` had a GHS category of 5. On to `CCN(CCCSc1nnnn1C)C(=O)C1CCCC1`, for which the GHS category is listed as 4.

In the case of `CC(C)CCCCCCCCOCCCNCCC#N`, the GHS category is listed as 5. Compound `COc1nc(OC)nc(C(=O)c2cccc(F)c2N(C)S(=O)(=O)C(F)(F)F)n1` registered a GHS category of 5. Turning to `CCOc1ccc(OC(=O)c2ccccc2OC(N)=O)cc1`, the GHS category is recorded as 5. In the case of `CCCCCCCCCCSCCN1CCCC1=O` it was 5; in that of `COc1ccc(CCN(C(=O)CCCSc2nnnn2C)C2CCCCC2)cc1OC`, 4.

In turn, `COc1ccc(N=NC(C(C)=O)C(=O)Nc2ccccc2OC)c([N+](=O)[O-])c1` (stereo unspecified) yielded a GHS category of 5.

The compound `CC1CC(C)C(C)CC1C` (stereo unspecified) displayed a GHS category of 5.

`CN[C@@H]1[C@@H](O)[C@@H](O[C@@H]2[C@@H](O)[C@H](O[C@H]3O[C@H](CN)[C@@H](O)[C@H](O)[C@H]3O)[C@@H](N)C[C@H]2NC(=O)C(O)CN)OC[C@]1(C)O` (stereo partly specified) registered a GHS category of 5. The result for `Cc1ccc(C(=O)O)c(Oc2ccccc2CC(=O)O)c1C` reads 5.

`CCCCCCCCCCCCCCCCCCCCO` returned a GHS category of 5.

`CCOC(=O)C(Cl)C(=O)OCC` displayed a GHS category of 4. Compound `CC(C)CCCCCCCCCCOCCCN` returned a GHS category of 4. The compound `COc1ccc(OCCCCN2CCN(CCc3cc(OC)c(OC)c(OC)c3)CC2)c(C2Sc3ccccc3N2C(C)=O)c1` (stereo unspecified) displayed a GHS category of 4. In turn, `CN1C(=O)c2ccc3c4ccc5c6c(ccc(c7ccc(c2c37)C1=O)c64)C(=O)N(C)C5=O` displayed a GHS category of 5. Consider `CCC1COC(Cn2cncn2)(c2cc3ccccc3o2)O1` (stereo unspecified), for which the GHS category is 4. The result for `COC(=O)c1cc(Cl)ccc1OC(N)=O` reads 5.

As to `CCCCCC(CCC)COC(=O)c1ccccc1C(=O)OCC(CCC)CCCCC` (stereo unspecified), the GHS category is 5. The result for `COc1cc(C)c(/C=C/C(C)=C/C=C/C(C)=C/C(=O)O)c(C)c1C` reads 5; that for `CC1CC(OC(=O)C(C)(C)Oc2cccc(C(F)(F)F)c2)CC(C)(C)C1` (stereo unspecified), 5. In turn, `O=C1c2ccccc2C(=O)N1CC1=Nc2ccccc2Cc2ccccc21` yielded a GHS category of 5.

In turn, `NC(=O)c1ccc(N)cc1` gave a GHS category of 5.

Turning to `CCN(C)CCC(C#N)(CC=C(C)C)c1cccc2ccccc12` (stereo unspecified), the GHS category stood at 4.

Take `COc1ccc([C@@H]2Sc3ccccc3NC(=O)[C@@H]2O)cc1`: the GHS category is 5.

Compound `N#CCC(=O)OCC(COC(=O)CC#N)(COC(=O)CC#N)COC(=O)CC#N` returned a GHS category of 5.

Compound `O=C1NC(=O)C(c2ccc(O)cc2)(c2ccc(O)cc2)N1` returned a GHS category of 5.

`CCCCCCCCNC(C)C(O)c1ccc2c(c1)CCCS2` (stereo unspecified) yielded a GHS category of 5. The result for `O=C1CCc2ccc(OCC(O)CN3CCC(c4ccccc4)CC3)cc2N1` (stereo unspecified) reads 4; that for `Cc1cc(C(=O)Nc2cccc(C)c2C)n[nH]1`, 5. In turn, `COc1ccccc1N=Nc1c(O)ccc2ccccc12` came in with a GHS category of 5. `COc1ccc(Cl)cc1NC(=O)CC(C)=O` had a GHS category of 5. In the case of `Cc1cc(Cc2cc(C)cc(C3CCCCC3)c2O)c(O)c(C2CCCCC2)c1` it was 5; in that of `O=S(=O)(O)c1cc(Nc2nc(Cl)nc(N(CCO)CCO)n2)ccc1C=Cc1ccc(Nc2nc(Cl)nc(N(CCO)CCO)n2)cc1S(=O)(=O)O`, 5; in that of `C=CC(C)(CCC=C(C)C)OC(C)OCC` (stereo unspecified), 5.

The compound `O=c1[nH]c(=O)[nH]c(=O)[nH]1` gave a GHS category of 5.

In the case of `CC(C)(Oc1ccc(Cl)cc1)C(=O)OC(COC(=O)c1cccnc1)COC(=O)c1cccnc1`, the GHS category stood at 5. In the case of `O=S(=O)(O)CCO`, the GHS category stood at 5. The result for `CNc1cccc(NC(=O)C(=O)O)c1C#N` reads 5; that for `Cc1c(C)c2c(c(C)c1O)CCC(C)(CCCC(C)CCCC(C)CCCC(C)C)O2` (racemic), 5. With `N=c1ccn2c(n1)O[C@H]1[C@H](O)[C@@H](CO)O[C@H]12`, the GHS category is reported as 5.

`COC(=O)[C@]1(C)CCC[C@@]2(C)[C@H]1CC=C1C=C(C(C)C)CC[C@@H]12` yielded a GHS category of 5.

In turn, `CCC(C(=O)NC(N)=O)c1ccccc1` (stereo unspecified) came in with a GHS category of 5. In the case of `O=C1c2ccc(N(c3ccc(Cl)cc3)c3ccc(Cl)cc3)cc2C(=O)N1Cc1cccnc1` it was 5; in that of `Cn1c(N)cc(=O)n(C)c1=O`, 5. In the case of `O=S(=O)(O)c1ccc2c(c1)Nc1cc3nc4ccc(S(=O)(=O)O)cc4nc3cc1N2` it was 5. On to `NC(=O)N=NC(N)=O`, for which the GHS category was 5. In the case of `CCCCCCOC(=O)C(C)CC` (stereo unspecified) it was 5; in that of `CCCCOC(=O)C1C(C(=O)OCCCC)C2(Cl)C(Cl)=C(Cl)C1(Cl)C2(Cl)Cl` (stereo unspecified), 5. `NC[C@H]1O[C@H](O[C@H]2[C@H](O)[C@@H](O[C@H]3O[C@H](CO)[C@@H](O)[C@H](N)[C@H]3O)[C@H](N)C[C@@H]2N)[C@H](N)C[C@@H]1O` displayed a GHS category of 5.

As to `CCOC(=O)CC#N`, the GHS category came out at 5. Compound `CCSC(=O)/C=C(C)/C=C/CC(C)CCCC(C)(C)OC` (stereo unspecified) showed a GHS category of 5. `CCOC(C)C(C=NNC(N)=S)=NNC(N)=S` (stereo unspecified) yielded a GHS category of 5.

Turning to `CC(C)[N+](C)(CCC(C(N)=O)(c1ccccc1)c1ccccc1)C(C)C`, the GHS category came out at 5.

Compound `O=[N+]([O-])c1ccc(OCC2CO2)cc1` (stereo unspecified) had a GHS category of 5.
